Conditions: Cohort 1 200 mg QD
Protocol: All responses were assessed by the investigators.
Reported Adverse Events. […] All-cause mortality data collected during the study were assessed for all enrolled participants. Disease progression related death was not reported as AE.
Number of Participants With Treatment-emergent Adverse Events (TEAEs), and Treatment-emergent Serious Adverse Events (TESAEs). […] TEAEs included both SAEs and non-SAEs. […] Analysis was performed on safety population which included all participants who received at least 1 dose of study medication.

CC(C)NC(=O)COc1cccc(-c2nc(Nc3ccc4[nH]ncc4c3)c3ccccc3n2)c1 [Belumosudil, 2-{3-[4-(1H-indazol-5-ylamino)-2-quinazolinyl]phenoxy}-N-(propan-2-yl) acetamide]
(52.94%): Upper respiratory tract infection: Affected/At Risk (%)
4: Vomiting: # Events
3: Tremor: # Events
(100%): Total Other Adverse Events: Affected/At Risk (%)
(0%): Skin abrasion: Affected/At Risk (%) | Skin lesion: Affected/At Risk (%) | Squamous cell carcinoma of skin: Affected/At Risk (%) | Superior vena cava syndrome: Affected/At Risk (%) | Tachycardia: Affected/At Risk (%) | Tendonitis: Affected/At Risk (%) | Thrombocytopenia: Affected/At Risk (%) | Tinea pedis: Affected/At Risk (%) | Tooth fracture: Affected/At Risk (%) | Ulcerative keratitis: Affected/At Risk (%) | Upper-airway cough syndrome: Affected/At Risk (%) | Urinary retention: Affected/At Risk (%) | Urinary tract infection: Affected/At Risk (%) | Urinary tract pain: Affected/At Risk (%) | Vascular access complication: Affected/At Risk (%) | Vision blurred: Affected/At Risk (%)
(11.76%): Sinus pain: Affected/At Risk (%) | Tremor: Affected/At Risk (%) | Vertigo: Affected/At Risk (%) | Vomiting: Affected/At Risk (%)
9/17: Upper respiratory tract infection: Affected/At Risk
17/17: Total Other Adverse Events: Affected/At Risk
2: SAE Pneumonia, # events | Sinus pain: # Events | Stomatitis: # Events | Vertigo: # Events
1/17: SAE Lipomatosis, affected/at risk | SAE Metastases to meninges, affected/at risk | SAE Obliterative bronchiolitis, affected/at risk | SAE Pneumonia, affected/at risk | SAE Proteinuria, affected/at risk | Sinusitis: Affected/At Risk | Skin papilloma: Affected/At Risk | Spinal compression fracture: Affected/At Risk | Stomatitis: Affected/At Risk | Testicular pain: Affected/At Risk | Testicular swelling: Affected/At Risk | Thoracic spinal stenosis: Affected/At Risk | Thrombocytosis: Affected/At Risk | Transfusion reaction: Affected/At Risk | Type 2 diabetes mellitus: Affected/At Risk | Urine output decreased: Affected/At Risk | Weight decreased: Affected/At Risk
2/17: Sinus pain: Affected/At Risk | Tremor: Affected/At Risk | Vertigo: Affected/At Risk | Vomiting: Affected/At Risk
0: SAE Muscular weakness, # events | SAE Myelodysplastic syndrome, # events | SAE Non-cardiac chest pain, # events | SAE Pericardial effusion, # events | SAE Pleural effusion, # events | SAE Pneumonia viral, # events | SAE Pregnancy of partner, # events | SAE Respirovirus test positive, # events | SAE Small intestinal obstruction, # events | SAE Stenotrophomonas infection, # events | SAE Urinary retention, # events | SAE Urinary tract infection, # events | SAE Varicella zoster virus infection, # events | Skin abrasion: # Events | Skin lesion: # Events | Squamous cell carcinoma of skin: # Events | Superior vena cava syndrome: # Events | Tachycardia: # Events | Tendonitis: # Events | Thrombocytopenia: # Events | Tinea pedis: # Events | Tooth fracture: # Events | Ulcerative keratitis: # Events | Upper-airway cough syndrome: # Events | Urinary retention: # Events | Urinary tract infection: # Events | Urinary tract pain: # Events | Vascular access complication: # Events | Vision blurred: # Events
5/17: SAE total, affected/at risk
1: SAE Lipomatosis, # events | SAE Metastases to meninges, # events | SAE Obliterative bronchiolitis, # events | SAE Proteinuria, # events | Sinusitis: # Events | Skin papilloma: # Events | Spinal compression fracture: # Events | Testicular pain: # Events | Testicular swelling: # Events | Thoracic spinal stenosis: # Events | Thrombocytosis: # Events | Transfusion reaction: # Events | Type 2 diabetes mellitus: # Events | Urine output decreased: # Events | Weight decreased: # Events
16: Upper respiratory tract infection: # Events
0/17: SAE Muscular weakness, affected/at risk | SAE Myelodysplastic syndrome, affected/at risk | SAE Non-cardiac chest pain, affected/at risk | SAE Pericardial effusion, affected/at risk | SAE Pleural effusion, affected/at risk | SAE Pneumonia viral, affected/at risk | SAE Pregnancy of partner, affected/at risk | SAE Respirovirus test positive, affected/at risk | SAE Small intestinal obstruction, affected/at risk | SAE Stenotrophomonas infection, affected/at risk | SAE Urinary retention, affected/at risk | SAE Urinary tract infection, affected/at risk | SAE Varicella zoster virus infection, affected/at risk | Skin abrasion: Affected/At Risk | Skin lesion: Affected/At Risk | Squamous cell carcinoma of skin: Affected/At Risk | Superior vena cava syndrome: Affected/At Risk | Tachycardia: Affected/At Risk | Tendonitis: Affected/At Risk | Thrombocytopenia: Affected/At Risk | Tinea pedis: Affected/At Risk | Tooth fracture: Affected/At Risk | Ulcerative keratitis: Affected/At Risk | Upper-airway cough syndrome: Affected/At Risk | Urinary retention: Affected/At Risk | Urinary tract infection: Affected/At Risk | Urinary tract pain: Affected/At Risk | Vascular access complication: Affected/At Risk | Vision blurred: Affected/At Risk
(5.88%): Sinusitis: Affected/At Risk (%) | Skin papilloma: Affected/At Risk (%) | Spinal compression fracture: Affected/At Risk (%) | Stomatitis: Affected/At Risk (%) | Testicular pain: Affected/At Risk (%) | Testicular swelling: Affected/At Risk (%) | Thoracic spinal stenosis: Affected/At Risk (%) | Thrombocytosis: Affected/At Risk (%) | Transfusion reaction: Affected/At Risk (%) | Type 2 diabetes mellitus: Affected/At Risk (%) | Urine output decreased: Affected/At Risk (%)

— patent US20250255867A1 (Kadmon Corporation, LLC, priority 2022, published 2025)
